# Experimental data reported in US9328083B2, “2-aminated methylene or 2-esterified methylene tanshinone derivatives, and preparation method and application thereof” (HANGZHOU BENSHENG PHARMACEUTICAL CO., LTD., priority 2011, dated 2016).
# How the values were obtained:
# [1] = tested on: H9 (acute lymphoblastic leukemia, ALL); experiment: MTT growth inhibition of leukemia cells, 72 h; type: cell-based, human; conditions: Homo sapiens, H9, 72 h
# Source text: (§1) Leukemia cell lines: leukemia cell lines: K562/adr (drug-resistant, chronic myeloid leukemia, CML), NB4 (acute promyelocytic leukemia, AML), Kasumi-1 (acute myeloid leukemia M2 type, AML-M2), and Jurkat (acute lymphoblastic leukemia, ALL), all of which are donated by Cancer Research Institute of Zhejiang University, China; and H9 (acute lymphoblastic leukemia, ALL), which is purchased from China Center for Type Culture Collection (CCTCC).
# (§2) The standard sample of tanshinone I (TA) and the 2-aminated methylene or 2-esterified methylene tanshinone I derivatives of the present invention are sufficiently dissolved with dimethylsulfoxide to produce a stock solution of 10 mg/mL, which is refrigerated at 4° C. and stored in dark, and is diluted with a cell culture medium to the desired concentration prior to experimentation.
# (§3) Obtaining 6000 well-growing leukemia cells and inoculating them into wells of a 96-well cell culture plate. The culture medium is the RPMI-1640 cell culture medium containing 10% fetal bovine serum. After adding on the second day the 2-aminated methylene or 2-esterified methylene tanshinone I derivatives of different concentrations and mixing uniformly, placing the plate in a carbon dioxide cell incubator (5% CO2) at 37° C. and incubated for 72 hours. Then the viable cell concentration is determined by MTT method.
# [2] = tested on: Jurkat (acute lymphoblastic leukemia, ALL); experiment: MTT growth inhibition of leukemia cells, 72 h; type: cell-based, human; conditions: Homo sapiens, 72 h
# Source text: as §1, §2, §3
# [3] = tested on: K562/adr (drug-resistant, chronic myeloid leukemia, CML); experiment: MTT growth inhibition of leukemia cells, 72 h; type: cell-based, human; conditions: Homo sapiens, K562/Adr
# Source text: as §1, §2, §3
# [4] = tested on: Kasumi-1 (acute myeloid leukemia M2 type, AML-M2); experiment: MTT growth inhibition of leukemia cells, 72 h; type: cell-based, human; conditions: Homo sapiens, Kasumi-1, 72 h
# Source text: as §1, §2, §3
# [5] = tested on: NB4 (acute promyelocytic leukemia, AML); experiment: MTT growth inhibition of leukemia cells, 72 h; type: cell-based, human; conditions: Homo sapiens, NB4, 72 h
# Source text: as §1, §2, §3
# [6] = tested on: RPMI8226 (multiple myeloma); experiment: MTT growth inhibition of multiple myeloma cells, 72 h; type: cell-based, human; conditions: Homo sapiens, RPMI 8226, 72 h
# Description: Myeloma cell lines: RPMI8226 (multiple myeloma), purchased from Fuxiang Bio-tech Co. Ltd., Shanghai, China.
# as §2
# Obtaining 6000 well-growing myeloma cells as above and inoculating them into wells of a 96-well cell culture plate. The culture medium is the 1640 cell culture medium containing 10% fetal bovine serum. After adding the 2-aminated methylene or 2-esterified methylene tanshinone I derivatives of different concentrations and mixing uniformly, placing the plate in a carbon dioxide cell incubator (5% CO2) at 37° C. and incubated for 72 hours. Then the viable cell concentration is determined by MTT method.
# A549 (human lung cancer) = experiment: MTT growth inhibition of human solid tumor cells, 72 h; type: cell-based; conditions: Homo sapiens, A549, 72 h
# Description: (§4) Hep-2 (laryngeal carcinoma), A549 (human lung cancer), CaES-17 (esophageal cancer cell), PC-3 (prostate cancer), CNE (nasopharyngeal carcinoma cell), and SK-OV-3 (ovarian cancer cell), all of which are purchased from China Center For Type Culture Collection; RKO (human colon adenocarcinoma cell), MGC 803 (human gastric cancer cell), MG63 (osteosarcoma) and U87 MG (malignant glioma cell), all of which are purchased from Fuxiang Bio-tech Co. Ltd., Shanghai, China; PANC-1 (pancreatic cancer), Hep G2 (human liver cancer cell), Becap37 (human breast cancer cell) and Hela (human cervical cancer cell), all of which are donated by Cancer Research Institute of Zhejiang University, China.
# as §2
# (§5) Obtaining 4000 well-growing human solid tumor cells and inoculating them into wells of a 96-well cell culture plate. The culture medium is DMEM High Glucose cell culture medium containing 10% fetal bovine serum. The plate is placed in a carbon dioxide cell incubator (5% CO2) at 37° C. and incubated for 24 hours. After adding the 2-aminated methylene or 2-esterified methylene tanshinone I derivatives of different concentrations and mixing uniformly, the plate is placed in a carbon dioxide cell incubator (5% CO2) at 37° C. and incubated for 72 hours. Then the viable cell concentration is determined by the MTT method.
# [7] = tested on: Becap37 (human breast cancer cell); experiment: as above; type: cell-based; conditions: Homo sapiens, Becap-37, 72 h
# Description: as §4, §2, §5
# [8] = tested on: CNE (nasopharyngeal carcinoma cell); experiment: as above; type: cell-based; conditions: Homo sapiens
# Description: as §4, §2, §5
# [9] = tested on: CaES-17 (esophageal cancer cell); experiment: as above; type: cell-based; conditions: Homo sapiens, CaEs17, CaEs-17, 72 h
# Description: as §4, §2, §5
# [10] = tested on: Hela (human cervical cancer cell); experiment: as above; type: cell-based; conditions: Homo sapiens, HeLa, 72 h
# Description: as §4, §2, §5
# [11] = tested on: Hep G2 (human liver cancer cell); experiment: as above; type: cell-based; conditions: Homo sapiens, HepG2, Hep G2, 72 h
# Description: as §4, §2, §5
# [12] = tested on: Hep-2 (laryngeal carcinoma); experiment: as above; type: cell-based; conditions: Homo sapiens, HEp-2, 72 h
# Description: as §4, §2, §5
# MG63 (osteosarcoma) = experiment: as above; type: cell-based; conditions: Homo sapiens, MG-63, 72 h
# Description: as §4, §2, §5
# [13] = tested on: MGC 803 (human gastric cancer cell); experiment: as above; type: cell-based; conditions: Homo sapiens, MGC-803, 72 h
# Description: as §4, §2, §5
# [14] = tested on: PANC-1 (pancreatic cancer); experiment: as above; type: cell-based; conditions: Homo sapiens, PANC-1, 72 h
# Description: as §4, §2, §5
# PC-3 (prostate cancer) = experiment: as above; type: cell-based; conditions: Homo sapiens, PC-3, 72 h
# Description: as §4, §2, §5
# [15] = tested on: RKO (human colon adenocarcinoma cell); experiment: as above; type: cell-based; conditions: Homo sapiens
# Description: as §4, §2, §5
# [16] = tested on: SK-OV-3 (ovarian cancer cell); experiment: as above; type: cell-based; conditions: Homo sapiens, SK-OV-3, 72 h
# Description: as §4, §2, §5
# [17] = tested on: U87 MG (malignant glioma cell); experiment: as above; type: cell-based; conditions: Homo sapiens, U-87 MG, U87-MG, 72 h
# Description: as §4, §2, §5
structure (smiles),measurement,setting,value
Cc1c(CN(C)CCOC(=O)OC(C)C)oc2c1C(=O)C(=O)c1c-2ccc2c(C)cccc12 [BS-TA-63],IC50,[1]; read-out: IC50,3.75 mg/L
same,IC90,[1]; read-out: IC90,15.3 mg/L
same,IC50,[2]; read-out: IC50,3 mg/L
same,IC90,[2]; read-out: IC90,7.56 mg/L
same,IC50,[3]; read-out: IC50,1.26 mg/L
same,IC90,[3]; read-out: IC90,4.6 mg/L
same,IC50,[4]; read-out: IC50,1.48 mg/L
same,IC90,[4]; read-out: IC90,3.89 mg/L
same,IC50,[5]; read-out: IC50,3.73 mg/L
same,IC90,[5]; read-out: IC90,10.4 mg/L
same,IC50,[6]; read-out: IC50,7.76 mg/L
same,IC90,[6]; read-out: IC90,16 mg/L
same,IC50,A549 (human lung cancer); read-out: IC50,6.5 mg/L
same,IC90,A549 (human lung cancer); read-out: IC90,23.4 mg/L
same,IC50,[7]; read-out: IC50,16 mg/L
same,IC90,[7]; read-out: IC90,> 16 mg/L
same,IC50,[8]; read-out: IC50,> 16 mg/L
same,IC90,[8]; read-out: IC90,> 16 mg/L
same,IC50,[9]; read-out: IC50,> 16 mg/L
same,IC90,[9]; read-out: IC90,> 16 mg/L
same,IC50,[10]; read-out: IC50,8.77 mg/L
same,IC90,[10]; read-out: IC90,> 16 mg/L
same,IC50,[11]; read-out: IC50,15.7 mg/L
same,IC90,[11]; read-out: IC90,> 16 mg/L
same,IC50,[12]; read-out: IC50,3.39 mg/L
same,IC90,[12]; read-out: IC90,22.4 mg/L
same,IC50,MG63 (osteosarcoma); read-out: IC50,14.1 mg/L
same,IC90,MG63 (osteosarcoma); read-out: IC90,> 16 mg/L
same,IC50,[13]; read-out: IC50,14.9 mg/L
same,IC90,[13]; read-out: IC90,> 16 mg/L
same,IC50,[14]; read-out: IC50,4.92 mg/L
same,IC90,[14]; read-out: IC90,20.9 mg/L
same,IC50,PC-3 (prostate cancer); read-out: IC50,5.83 mg/L
same,IC90,PC-3 (prostate cancer); read-out: IC90,18.9 mg/L
same,IC50,[15]; read-out: IC50,1.86 mg/L
same,IC90,[15]; read-out: IC90,17.6 mg/L
same,IC50,[16]; read-out: IC50,> 16 mg/L
same,IC90,[16]; read-out: IC90,> 16 mg/L
same,IC50,[17]; read-out: IC50,15.8 mg/L
same,IC90,[17]; read-out: IC90,> 16 mg/L
